Reference: BigSolDB 2.1

Structure (SMILES): COc1ccc(CN2CCNCC2)c(OC)c1OC.Cl.Cl
- solubility (mole fraction) (in 1,4-dioxane, 288.15 K): 5.08e-05
- solubility (mole fraction) (in 1,4-dioxane, 293.15 K): 6.07e-05
- solubility (mole fraction) (in 1,4-dioxane, 298.15 K): 7.16e-05
- solubility (mole fraction) (in 1,4-dioxane, 303.15 K): 8.25e-05
- solubility (mole fraction) (in 1,4-dioxane, 308.15 K): 9.48e-05
- solubility (mole fraction) (in 1,4-dioxane, 313.15 K): 0.000109
- solubility (mole fraction) (in 1,4-dioxane, 318.15 K): 0.000124
- solubility (mole fraction) (in 1,4-dioxane, 323.15 K): 0.000141
- solubility (mole fraction) (in 2-butanone, 278.15 K): 6.02e-06
- solubility (mole fraction) (in 2-butanone, 283.15 K): 6.56e-06
- solubility (mole fraction) (in 2-butanone, 288.15 K): 7.1e-06
- solubility (mole fraction) (in 2-butanone, 293.15 K): 7.72e-06
- solubility (mole fraction) (in 2-butanone, 298.15 K): 8.35e-06
- solubility (mole fraction) (in 2-butanone, 303.15 K): 9.05e-06
- solubility (mole fraction) (in 2-butanone, 308.15 K): 9.85e-06
- solubility (mole fraction) (in 2-butanone, 313.15 K): 1.06e-05
- solubility (mole fraction) (in 2-butanone, 318.15 K): 1.15e-05
- solubility (mole fraction) (in 2-butanone, 323.15 K): 1.24e-05
- solubility (mole fraction) (in DMF, 278.15 K): 0.00053
- solubility (mole fraction) (in DMF, 283.15 K): 0.000566
- solubility (mole fraction) (in DMF, 288.15 K): 0.000609
- solubility (mole fraction) (in DMF, 293.15 K): 0.000658
- solubility (mole fraction) (in DMF, 298.15 K): 0.000705
- solubility (mole fraction) (in DMF, 303.15 K): 0.000754
- solubility (mole fraction) (in DMF, 308.15 K): 0.000803
- solubility (mole fraction) (in DMF, 313.15 K): 0.000857
- solubility (mole fraction) (in DMF, 318.15 K): 0.000913
- solubility (mole fraction) (in DMF, 323.15 K): 0.000975
- solubility (mole fraction) (in acetone, 278.15 K): 6.23e-06
- solubility (mole fraction) (in acetone, 283.15 K): 6.82e-06
- solubility (mole fraction) (in acetone, 288.15 K): 7.47e-06
- solubility (mole fraction) (in acetone, 293.15 K): 8.16e-06
- solubility (mole fraction) (in acetone, 298.15 K): 8.85e-06
- solubility (mole fraction) (in acetone, 303.15 K): 9.62e-06
- solubility (mole fraction) (in acetone, 308.15 K): 1.03e-05
- solubility (mole fraction) (in acetone, 313.15 K): 1.11e-05
- solubility (mole fraction) (in acetone, 318.15 K): 1.2e-05
- solubility (mole fraction) (in acetone, 323.15 K): 1.3e-05
- solubility (mole fraction) (in acetonitrile, 278.15 K): 1.23e-05
- solubility (mole fraction) (in acetonitrile, 283.15 K): 1.37e-05
- solubility (mole fraction) (in acetonitrile, 288.15 K): 1.49e-05
- solubility (mole fraction) (in acetonitrile, 293.15 K): 1.63e-05
- solubility (mole fraction) (in acetonitrile, 298.15 K): 1.77e-05
- solubility (mole fraction) (in acetonitrile, 303.15 K): 1.9e-05
- solubility (mole fraction) (in acetonitrile, 308.15 K): 2.04e-05
- solubility (mole fraction) (in acetonitrile, 313.15 K): 2.19e-05
- solubility (mole fraction) (in acetonitrile, 318.15 K): 2.38e-05
- solubility (mole fraction) (in acetonitrile, 323.15 K): 2.58e-05
- solubility (mole fraction) (in ethanol, 278.15 K): 0.000583
- solubility (mole fraction) (in ethanol, 283.15 K): 0.000652
- solubility (mole fraction) (in ethanol, 288.15 K): 0.000727
- solubility (mole fraction) (in ethanol, 293.15 K): 0.000805
- solubility (mole fraction) (in ethanol, 298.15 K): 0.00089
- solubility (mole fraction) (in ethanol, 303.15 K): 0.000987
- solubility (mole fraction) (in ethanol, 308.15 K): 0.00109
- solubility (mole fraction) (in ethanol, 313.15 K): 0.0012
- solubility (mole fraction) (in ethanol, 318.15 K): 0.00132
- solubility (mole fraction) (in ethanol, 323.15 K): 0.00145
- solubility (mole fraction) (in ethyl acetate, 278.15 K): 0.00201
- solubility (mole fraction) (in ethyl acetate, 283.15 K): 0.00209
- solubility (mole fraction) (in ethyl acetate, 288.15 K): 0.00217
- solubility (mole fraction) (in ethyl acetate, 293.15 K): 0.00226
- solubility (mole fraction) (in ethyl acetate, 298.15 K): 0.00234
- solubility (mole fraction) (in ethyl acetate, 303.15 K): 0.00244
- solubility (mole fraction) (in ethyl acetate, 308.15 K): 0.00254
- solubility (mole fraction) (in ethyl acetate, 313.15 K): 0.00264
- solubility (mole fraction) (in ethyl acetate, 318.15 K): 0.00275
- solubility (mole fraction) (in ethyl acetate, 323.15 K): 0.00286
- solubility (mole fraction) (in isopropanol, 278.15 K): 7.61e-05
- solubility (mole fraction) (in isopropanol, 283.15 K): 9.15e-05
- solubility (mole fraction) (in isopropanol, 288.15 K): 0.00011
- solubility (mole fraction) (in isopropanol, 293.15 K): 0.000133
- solubility (mole fraction) (in isopropanol, 298.15 K): 0.000157
- solubility (mole fraction) (in isopropanol, 303.15 K): 0.000184
- solubility (mole fraction) (in isopropanol, 308.15 K): 0.000215
- solubility (mole fraction) (in isopropanol, 313.15 K): 0.000247
- solubility (mole fraction) (in isopropanol, 318.15 K): 0.000287
- solubility (mole fraction) (in isopropanol, 323.15 K): 0.000333
- solubility (mole fraction) (in methanol, 278.15 K): 0.00353
- solubility (mole fraction) (in methanol, 283.15 K): 0.00402
- solubility (mole fraction) (in methanol, 288.15 K): 0.00458
- solubility (mole fraction) (in methanol, 293.15 K): 0.00524
- solubility (mole fraction) (in methanol, 298.15 K): 0.00603
- solubility (mole fraction) (in methanol, 303.15 K): 0.00682
- solubility (mole fraction) (in methanol, 308.15 K): 0.00777
- solubility (mole fraction) (in methanol, 313.15 K): 0.00882
- solubility (mole fraction) (in methanol, 318.15 K): 0.00993
- solubility (mole fraction) (in methanol, 323.15 K): 0.0111
- solubility (mole fraction) (in n-butanol, 278.15 K): 0.000131
- solubility (mole fraction) (in n-butanol, 283.15 K): 0.000153
- solubility (mole fraction) (in n-butanol, 288.15 K): 0.000177
- solubility (mole fraction) (in n-butanol, 293.15 K): 0.000201
- solubility (mole fraction) (in n-butanol, 298.15 K): 0.000232
- solubility (mole fraction) (in n-butanol, 303.15 K): 0.000263
- solubility (mole fraction) (in n-butanol, 308.15 K): 0.000297
- solubility (mole fraction) (in n-butanol, 313.15 K): 0.000336
- solubility (mole fraction) (in n-butanol, 318.15 K): 0.000383
- solubility (mole fraction) (in n-butanol, 323.15 K): 0.000432
- solubility (mole fraction) (in n-propanol, 278.15 K): 0.000193
- solubility (mole fraction) (in n-propanol, 283.15 K): 0.000217
- solubility (mole fraction) (in n-propanol, 288.15 K): 0.000246
- solubility (mole fraction) (in n-propanol, 293.15 K): 0.000281
- solubility (mole fraction) (in n-propanol, 298.15 K): 0.000322
- solubility (mole fraction) (in n-propanol, 303.15 K): 0.000366
- solubility (mole fraction) (in n-propanol, 308.15 K): 0.000413
- solubility (mole fraction) (in n-propanol, 313.15 K): 0.000464
- solubility (mole fraction) (in n-propanol, 318.15 K): 0.000521
- solubility (mole fraction) (in n-propanol, 323.15 K): 0.000581
- solubility (mole fraction) (in toluene, 278.15 K): 7.02e-07
- solubility (mole fraction) (in toluene, 283.15 K): 8.19e-07
- solubility (mole fraction) (in toluene, 288.15 K): 9.58e-07
- solubility (mole fraction) (in toluene, 293.15 K): 1.12e-06
- solubility (mole fraction) (in toluene, 298.15 K): 1.33e-06
- solubility (mole fraction) (in toluene, 303.15 K): 1.57e-06
- solubility (mole fraction) (in toluene, 308.15 K): 1.83e-06
- solubility (mole fraction) (in toluene, 313.15 K): 2.12e-06
- solubility (mole fraction) (in toluene, 318.15 K): 2.43e-06
- solubility (mole fraction) (in toluene, 323.15 K): 2.76e-06
